{"source": "patent US20230036624A1", "about": "“RETINOL-BASED COMPOSITION” (L'OREAL, priority 2019, published 2023)", "origin": "cited, not measured here", "tested_on": "human epidermal keratinocytes grown in monolayer culture", "data": [{"compound": "CCCCCCCCCCCCCCCC(=O)OC/C=C(C)/C=C/C=C(C)/C=C/C1=C(C)CCCC1(C)C", "note": "[retinyl palmitate]", "values": [{"measurement": "effectiveness compared with retinol, measured at the transcriptomic level", "value": "less effective than retinol"}]}]}
